Counter-ions that a name gives are not always drawn. Like-named read-outs stand apart in the source and are kept apart here.
Columns and labels:
arginase II (ARG II) = target: T1, arginase II (ARG II) (Homo sapiens, UniProt P78540); assay: Inhibition of arginase II, spectrophotometric urea assay at 530 nm; assay type: biochemical
T1 sequence (P78540 23-354): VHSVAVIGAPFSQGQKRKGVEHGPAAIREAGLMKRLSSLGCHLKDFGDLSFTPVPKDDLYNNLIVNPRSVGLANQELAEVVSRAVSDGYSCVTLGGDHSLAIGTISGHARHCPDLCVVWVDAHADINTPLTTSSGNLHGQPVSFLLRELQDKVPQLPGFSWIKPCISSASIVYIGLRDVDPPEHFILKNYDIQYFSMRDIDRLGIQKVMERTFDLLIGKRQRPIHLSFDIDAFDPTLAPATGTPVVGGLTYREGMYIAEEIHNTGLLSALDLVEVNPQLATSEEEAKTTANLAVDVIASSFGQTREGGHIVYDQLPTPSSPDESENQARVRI
Procedure, shortened: (§1)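 IC50 was derived by regression of OD530 normalized to uninhibited-enzyme controls against log concentration. Urea from 60-min, 37 °C turnover of L-arginine with manganese sulfate was detected after acid o-phthaldialdehyde/primaquine quench and 10 min colour development. Arginase I and II came from 100 ng/ml stocks in pH 7.4 phosphate with ovalbumin.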

human arginase I (ARG I) = target: T2, human arginase I (ARG I) (Homo sapiens, UniProt P05089); assay: Inhibition of arginase I, spectrophotometric urea assay at 530 nm; assay type: biochemical
T2 sequence (P05089 1-322): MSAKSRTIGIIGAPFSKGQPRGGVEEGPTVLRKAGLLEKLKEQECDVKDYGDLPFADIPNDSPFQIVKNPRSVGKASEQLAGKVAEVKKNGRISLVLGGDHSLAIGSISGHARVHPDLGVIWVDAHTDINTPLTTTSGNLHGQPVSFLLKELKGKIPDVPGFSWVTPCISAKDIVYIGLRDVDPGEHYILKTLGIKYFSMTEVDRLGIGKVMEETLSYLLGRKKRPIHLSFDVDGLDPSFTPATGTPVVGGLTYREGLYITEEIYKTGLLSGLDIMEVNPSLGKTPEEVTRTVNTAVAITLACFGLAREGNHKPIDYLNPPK
Procedure, shortened: as §1

[1] = Formula I compounds, Table 2, read-out: Potency (ARG II)
[2] = Formula I compounds, Table 2, read-out: Potency (ARG I)
[3] = Formula II compounds, Table 2-A, read-out: Potency (ARG)
[4] = Formula II compounds, Table 2-A, read-out: Potency (ARG I)

Compound	IC50 (arginase II (ARG II); [1]) [µM]	IC50 (human arginase I (ARG I); [2]) [µM]	IC50 (arginase II (ARG II); [3]) [µM]	IC50 (human arginase I (ARG I); [4]) [µM]	other results
NC(CCCCB(O)O)(CCN1CCCC1c1cc2ccccc2o1)C(=O)O (stereo not shown) [compound 42, 2-amino-2-(2-(2-(benzofuran-2-yl)pyrrolidin-1-yl)ethyl)-6-boronohexanoic acid dihydrochloride]	2 to 5	2 to 5			
COc1cc(F)c(CN2CCC(C(N)(CCCCB(O)O)C(=O)O)CC2)cc1OC (stereo not shown) [Example 96-A, 2-amino-6-borono-2-(1-(2-fluoro-4,5-dimethoxybenzyl)piperidin-4-yl)hexanoic acid dihydrochloride]			0.251 to 1	0.0001 to 0.25	
NC(CCCCB(O)O)(C(=O)O)C1CCN(Cc2ccc(Cl)c(Cl)c2)CC1 (stereo not shown) [Example 95-A, 2-amino-6-borono-2-(1-(3,4-dichlorobenzyl)piperidin-4-yl)hexanoic acid dihydrochloride]			0.251 to 1	0.0001 to 0.25	
NC(CCCCB(O)O)(C(=O)O)C1CCN(Cc2ccc3c(c2)OCO3)CC1 (stereo not shown) [Example 90-A, 2-amino-2-(1-(benzo[d][1,3]dioxol-5-ylmethyl)piperidin-4-yl)-6-boronohexanoic acid dihydrochloride]			0.0001 to 0.25	0.0001 to 0.25	
NC(CCCCB(O)O)(C(=O)O)[C@H]1C[C@@H](NCc2cccc3cccnc23)C1 (stereo partly drawn) [Example 79-A, cis-2-amino-6-borono-2-(3-(quinolin-8-ylmethylamino)cyclobutyl)hexanoic acid dihydrochloride]			0.0001 to 0.25	0.0001 to 0.25	
CNC(CCCCB(O)O)(CCN1CCCCC1)C(=O)O (stereo not shown) [compound 149, 6-borono-2-(methylamino)-2-(2-(piperidin-1-yl)ethyl)hexanoic acid]	0.0001 to 0.25	0.0001 to 0.25			
NC(CCCCB(O)O)(CCN1CCc2sccc2C1)C(=O)O (stereo not shown) [compound 29, 2-amino-6-borono-2-(2-(6,7-dihydrothieno[3,2-c]pyridin-5(4H)-yl)ethyl)hexanoic acid dihydrochloride]	1 to 2	0.251 to 1			
CC(=O)C1(c2ccccc2)CCN(CCC(N)(CCCCB(O)O)C(=O)O)CC1 (stereo not shown) [compound 45, 2-(2-(4-acetyl-4-phenylpiperidin-1-yl)ethyl)-2-amino-6-boronohexanoic acid dihydrochloride]					IC50 (arginase II (ARG II)): 2 to 5 µM; IC50 (human arginase I (ARG I)): 1 to 2 µM
NC(CCCCB(O)O)(C(=O)O)C1CCN(Cc2ccc(Oc3ccc(Cl)c(Cl)c3)cc2)CC1 (stereo not shown) [Example 64-A, 2-amino-6-borono-2-(1-(4-(3,4-dichlorophenoxy)benzyl)piperidin-4-yl)hexanoic acid dihydrochloride]			0.0001 to 0.25	0.0001 to 0.25	
NC(CCCCB(O)O)(C(=O)O)C1CCN(Cc2ccc(F)c(F)c2)CC1 (stereo not shown) [Example 48-A, 2-amino-6-borono-2-(1-(3,4-difluorobenzyl)piperidin-4-yl)hexanoic acid]			0.251 to 1	0.0001 to 0.25	
NC(CCCCB(O)O)(C(=O)O)C1CCN(CCCc2ccc(F)cc2F)CC1 (stereo not shown) [Example 52-A, 2-amino-6-borono-2-(1-(3-(2,4-difluorophenyl)propyl)piperidin-4-yl)hexanoic acid dihydrochloride]			0.0001 to 0.25	0.0001 to 0.25	
CC(C)C(=O)NCCC(N)(CCCCB(O)O)C(=O)O (stereo not shown) [compound 120, 2-amino-6-borono-2-(2-isobutyramidoethyl)hexanoic acid hydrochloride]	2 to 5	1 to 2			
NC(CCCCB(O)O)(C(=O)O)C1CCN(c2nc3ccc(Cl)cc3s2)CC1 (stereo not shown) [11-A, 2-amino-6-borono-2-[(6-chlorobenzothiazol-2-yl)-piperidin-4-yl)-hexanoic acid dihydrochloride]			0.251 to 1	0.251 to 1	
NC(CCCCB(O)O)(C(=O)O)C1CCN(Cc2ccccc2N2CCOCC2)CC1 (stereo not shown) [Example 54-A, 2-amino-6-borono-2-(1-(2-morpholinobenzyl)piperidin-4-yl)hexanoic acid dihydrochloride]			0.251 to 1	0.0001 to 0.25	
NC(CCCCB(O)O)(C(=O)O)C1CCN(C(=O)NCCc2ccc(F)cc2)CC1 (stereo not shown) [33-A, 2-amino-6-borono-2-(1-{[2-(4-fluorophenyl)ethyl]-carbamoyl}piperidin-4-yl)hexanoic acid hydrochloride]			1 to 2	1 to 2	
NC(CCCCB(O)O)(CNCc1ccccc1)C(=O)O (stereo not shown) [compound 84, 2-amino-2-((benzylamino)methyl)-6-boronohexanoic acid]	> 5	2 to 5			

Compound	IC50 (arginase II (ARG II); [1]) [µM]	IC50 (human arginase I (ARG I); [2]) [µM]	IC50 (arginase II (ARG II); [3]) [µM]	IC50 (human arginase I (ARG I); [4]) [µM]	other results
CN(C)C(=O)[C@@H]1CCCN1CCC(N)(CCCCB(O)O)C(=O)O (stereo partly drawn) [compound 54, 2-amino-6-borono-2-(2-((S)-2-(dimethylcarbamoyl)pyrrolidin-1-yl)ethyl)hexanoic acid dihydrochloride]	> 5	> 5			
NC(CCCCB(O)O)(C(=O)O)C1CCN(C(=O)Cc2ccc(Cl)cc2)CC1 (stereo not shown) [29-A, 2-amino-6-borono-2-{1-[(4-chlorophenyl)acetyl]-piperidin-4-yl}hexanoic acid hydrochloride]			> 5	1 to 2	
NC(CCCCB(O)O)(C(=O)O)[C@@H]1CC(=O)N(c2ccc(Cl)cc2)C1 (stereo partly shown) [14-A, 2-amino-6-borono-2-[1-(4-chlorophenyl)-5-oxo-pyrrolidin-3-yl]-hexanoic acid hydrochloride]			2 to 5	2 to 5	
NC(CCCCB(O)O)(C(=O)O)C1CCN(Cc2cccc(OC(F)(F)F)c2)CC1 (stereo not shown) [Example 103-A, 2-amino-6-borono-2-(1-(3-(trifluoromethoxy)benzyl)piperidin-4-yl)hexanoic acid dihydrochloride]			0.0001 to 0.25	0.0001 to 0.25	
NC(CCCCB(O)O)(C(=O)O)C1CCN(Cc2cccc(Cn3cccn3)c2)CC1 (stereo not shown) [Example 65-A, 2-(1-(3-((1H-pyrazol-1-yl)methyl)benzyl)piperidin-4-yl)-2-amino-6-boronohexanoic acid dihydrochloride]			0.0001 to 0.25	0.0001 to 0.25	
NC(CCCCB(O)O)(C(=O)O)C1CCN(Cc2ccc(C(F)(F)F)cc2)CC1 (stereo not shown) [Example 93-A, 2-amino-6-borono-2-(1-(4-(trifluoromethyl)benzyl)piperidin-4-yl)hexanoic acid]			0.251 to 1	0.251 to 1	
CN(CCO)CCC(N)(CCCCB(O)O)C(=O)O (stereo not shown) [compound 43, 2-amino-6-borono-2-(2-((2-hydroxyethyl)(methyl)amino)ethyl)hexanoic acid dihydrochloride]	2 to 5	1 to 2			
CCCCC1(NCCC(N)(CCCCB(O)O)C(=O)O)CC1 (stereo not shown) [compound 60, 2-amino-6-borono-2-(2-(1-butylcyclopropylamino)ethyl)hexanoic acid dihydrochloride]	0.251 to 1	0.0001 to 0.25			
CN(CCC(N)(CCCCB(O)O)C(=O)O)CC(=O)O (stereo not shown) [compound 18, 2-amino-6-borono-2-(2-((carboxymethyl)(methyl)amino)ethyl)hexanoic acid dihydrochloride]	2 to 5	2 to 5			
C[C@@H](O)CNCC(N)(CCCCB(O)O)C(=O)O (stereo partly drawn) [compound 85, 2-amino-6-borono-2-(((R)-2-hydroxypropylamino)methyl)hexanoic acid dihydrochloride]	2 to 5	2 to 5			
NC(CCCCB(O)O)(CCCOc1ccc(Cl)cc1)C(=O)O (stereo not shown) [compound 96, 2-Amino-6-borono-2-[3-(4-chlorophenoxy)-propyl]-hexanoic acid hydrochloride]	1 to 2	1 to 2			
NC(CCCCB(O)O)(C(=O)O)[C@H]1CCCN(Cc2ccc(Cl)c(Cl)c2)C1 (stereo partly drawn) [Example 69-A, 2-amino-6-borono-2-((S)-1-(3,4-dichlorobenzyl)piperidin-3-yl)hexanoic acid dihydrochloride]			1 to 2	0.251 to 1	
NC(CCCCB(O)O)(C(=O)O)C1CCN(c2cc(C(F)(F)F)c3ccccc3n2)CC1 (stereo not shown) [6-A, 2-amino-6-borono-2-(1-(4-(trifluoromethyl)quinolin-2-yl)piperidin-4-yl)hexanoic acid]			1 to 2	0.251 to 1	
CC(C)n1cncc1CC(N)(CCCCB(O)O)C(=O)O (stereo not shown) [compound 107, 2-amino-6-borono-2-((1-isopropyl-1H-imidazol-5-yl)methyl)hexanoic acid dihydrochloride]	> 5	> 5			
NC(CCCCB(O)O)(C(=O)O)C1CCN(c2ncc(Cl)cc2Cl)CC1 (stereo not shown) [8-A, 2-amino-6-borono-2-(1-(3,5-dichloropyridin-2-yl)piperidin-4-yl)hexanoic acid]			2 to 5	2 to 5	
NC(CCCCB(O)O)(C(=O)O)C1CCN(Cc2ccc(Cl)c(F)c2)CC1 (stereo not shown) [Example 49-A, 2-amino-6-borono-2-(1-(4-chloro-3-fluorobenzyl)piperidin-4-yl)hexanoic acid]			0.0001 to 0.25	0.251 to 1	

— patent publication US9994594B2, “Inhibitors of arginase and their therapeutic applications” (MARS, INCORPORATED, priority 2010, dated 2018)
